Test results reported in BindingDB's records for patent US20250197396 (Lieber Institute, 2025).

Biological target: Inositol hexakisphosphate kinase 1 (Homo sapiens, UniProt Q92551)
Test: Not found
Description: Not found

Chain of Inositol hexakisphosphate kinase 1 (Q92551 whole entry): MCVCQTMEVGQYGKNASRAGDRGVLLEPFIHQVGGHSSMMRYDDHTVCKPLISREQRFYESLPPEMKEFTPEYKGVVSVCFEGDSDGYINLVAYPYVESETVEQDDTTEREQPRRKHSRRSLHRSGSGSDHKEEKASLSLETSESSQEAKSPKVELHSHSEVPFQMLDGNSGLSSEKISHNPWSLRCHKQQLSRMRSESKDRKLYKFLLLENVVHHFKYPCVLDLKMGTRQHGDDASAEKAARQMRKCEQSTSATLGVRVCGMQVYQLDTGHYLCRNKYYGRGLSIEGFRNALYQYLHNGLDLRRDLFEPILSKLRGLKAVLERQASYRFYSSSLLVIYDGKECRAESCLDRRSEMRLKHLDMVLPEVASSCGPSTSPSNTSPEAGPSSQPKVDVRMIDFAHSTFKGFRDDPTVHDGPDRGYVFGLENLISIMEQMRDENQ

O=C(O)c1ccc2c(c1)C1(CCN(Cc3ncc(Cl)cc3Cl)CC1)C(=O)N2 [US20250197396, Compound 18a]
IC50: < 300 nM
